Measured values from US5164380A, “Process for preparing piroxicam/cyclodextrin complexes, the products obtained and their pharmaceutical compositions” (Chiesi Farmaceutici S.p.A., priority 1990, dated 1992).
Converted amounts (≈) assume the structure as drawn.

Legend:
[1] = Solubilization kinetics / solubility test (oversaturation, paddle method, continuous flow cell)
Text: This test, effected within a few minutes from the beginning of the solubilization process, provides data to be considered as one of the most important parameters for the biopharmaceutical evaluation of the products.

[2] = background, cited from earlier work
[3] = Water-wettability by water contact angle analysis; type: physicochemical
Text: Data are given relevant to water-wettability determined by water contact angle analysis, true density determined by Helium pycnometry, and surface area determined by mercury porosimetry (Table 2).

[4] = background; cited from earlier work

Compound: CN1C(C(=O)Nc2ccccn2)=C(O)c2ccccc2S1(=O)=O [piroxicam]
- C max (oversaturation value) ([1]; acetate buffer pH 5.0, 500 ml, 125 rpm, 37 °C, product at least 10 times saturation quantity): 30000 ng/mL
- solubility thermodynamic ([1]; acetate buffer, pH 5, aqueous buffer): 30 µg/mL (≈ 90.5 µM)
- analgesic and anti-inflammatory activity (in words) [2]: considerable analgesic and anti-inflammatory activity
- absorption (in words) ([2]; oral and rectal routes): slow and gradual absorption via both the oral and rectal routes
- water contact angle [3]: 76 °
- solubility (in words) [4]: poorly soluble in water and in biological fluids at physiological pH values
